Data as given in patent US7875647B2, “Heteroaryl-pyrazole derivatives as cannabinoid CB1 receptor antagonists” (Green Cross Corporation, priority 2006, dated 2011).
pIC50: −log10 of the molar value.

These compounds were tested against T1, Cannabinoid-1 receptor (CB1R) (Rattus norvegicus, UniProt P20272) (assay: Cannabinoid-1 receptor (CB1R) binding affinity assay ([3H]CP-55940, rat CB-1 receptor binding protocol)). Settings: IC50(nM), brain tissue of SD rats, [3H]CP-55940, 30° C. 60 min.
T1 construct: The tissue obtained from the brain of SD rats was homogenized; from tissue; host or cells: brain of SD rats (membrane pellet of the homogenate)
T1 sequence (P20272 whole entry): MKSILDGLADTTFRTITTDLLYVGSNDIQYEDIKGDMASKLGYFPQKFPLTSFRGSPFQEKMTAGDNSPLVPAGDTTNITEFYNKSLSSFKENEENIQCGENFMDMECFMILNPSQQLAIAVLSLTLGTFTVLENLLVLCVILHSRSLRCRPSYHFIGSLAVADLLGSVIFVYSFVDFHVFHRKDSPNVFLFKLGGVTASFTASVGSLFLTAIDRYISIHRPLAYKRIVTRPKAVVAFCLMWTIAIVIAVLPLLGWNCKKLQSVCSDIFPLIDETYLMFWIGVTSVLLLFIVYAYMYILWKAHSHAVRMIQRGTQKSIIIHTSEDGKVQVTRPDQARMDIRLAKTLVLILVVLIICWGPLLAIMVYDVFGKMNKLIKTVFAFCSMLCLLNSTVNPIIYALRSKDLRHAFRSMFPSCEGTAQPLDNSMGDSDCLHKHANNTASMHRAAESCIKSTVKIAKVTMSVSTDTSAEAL
Description: The tissue obtained from the brain of SD rats was homogenized with a Dounce homogenate system in TME (50 mM Tris, 3 mM MgCl2 and 1 mM EDTA, pH 7.4) at 4° C., and the homogenate was centrifuged at 48,000 g for 30 min. at 4° C. The pellet was resuspended in 5 ml of TME and the suspension was divided into aliquots and stored at −70° C. until its use in the following assay.
The tissue concentrations were determined by Bradford protein analysis, and 148 μl of brain tissue of the required concentration was added to the plate. The plate was covered and placed in a 30° C. incubator for 60 min, and then transformed on GF/B filtermat pretreated in polyethylenimine (PEI) using a cell harvester. Each filter was washed five times and dried at 60° C. for 1 hr. Then, the degree of radioactivity retained by the filter was measured using Wallac Microbeta™ (PerkinElmer Life Sciences, Inc., Massachusetts, U.S.A.) and the activity of the compound for inhibiting CB1 receptor was determined therefrom.

Row | Compound | IC50
1 | CCCCC(C)c1nnc(-c2nn(-c3ccccc3Cl)c(-c3ccc(Cl)cc3)c2C)s1 (stereo not drawn) [Example 411, 2-(1-(2-chlorophenyl)-5-(4-chlorophenyl)-4-methyl-1H-pyrazol-3-yl)-5-(hexan-2-yl)-1,3,4-thiadiazole] | 13.5 nM

Same assay, conditions: brain tissue of SD rats, [3H]CP-55940, 30° C. 60 min; read-out: IC50

Row | Compound | pIC50
2 | Cc1c(-c2nnc(C3CCC3)s2)nn(-c2ccc(Cl)cc2)c1-c1ccc(Br)cc1 [Example 424, 2-(5-(4-bromophenyl)-1-(4-chlorophenyl)-4-methyl-1H-pyrazol-3-yl)-5-cyclobutyl-1,3,4-thiadiazole] | 6.02
3 | Cc1c(-c2nnc([C@H]3C[C@H]3C(=O)N3CCCCC3)o2)nn(-c2ccc(Cl)cc2Cl)c1-c1ccc(Cl)cc1 [Example 242, ((1R,2S)-2-(5-(5-(4-chlorophenyl)-1-(2,4-dichlorophenyl)-4-methyl-1H-pyrazol-3-yl)-1,3,4-oxadiazol-2-yl)cyclopropyl)(piperidin-1-yl)methanone] | 7.17
4 | Cc1c(-c2nnnn2C2CCCCCC2)nn(-c2ccc(Cl)cc2Cl)c1-c1ccc(Br)cc1 [Example 608, 5-(5-(4-bromophenyl)-1-(2,4-dichlorophenyl)-4-methyl-1H-pyrazol-3-yl)-1-cycloheptyl-1H-tetrazole] | 7.78
5 | Cc1c(-c2nnc(-c3ccncc3)o2)nn(-c2ccc(Cl)cc2Cl)c1-c1ccc(Cl)cc1 [Example 2, 2-(5-(4-chlorophenyl)-1-(2,4-dichlorophenyl)-4-methyl-1H-pyrazol-3-yl)-5-(pyridin-4-yl)-1,3,4-oxadiazole] | 6.25
6 | Cc1c(-c2nnc(-c3cnccn3)o2)nn(-c2ccc(Cl)cc2Cl)c1-c1ccc(Cl)cc1 [Example 10, 2-(5-(4-chlorophenyl)-1-(2,4-dichlorophenyl)-4-methyl-1H-pyrazol-3-yl)-5-(pyrazin-2-yl)-1,3,4-oxadiazole] | 6.71
7 | Cc1c(-c2nnc(C3(c4ccc(Cl)cc4)CC3)o2)nn(-c2ccc(Cl)cc2Cl)c1-c1ccc(Cl)cc1 [Example 67, 2-(5-(4-chlorophenyl)-1-(2,4-dichlorophenyl)-4-methyl-1H-pyrazol-3-yl)-5-(1-(4-chlorophenyl)cyclopropyl)-1,3,4-oxadiazole] | 8.06
8 | 5-(5-(4-Chlorophenyl)-1-(2,4-dichlorophenyl)-4-methyl-1H-pyrazol-3-yl)-1-cycloheptyl-1H-tetrazole [Example 601] | 7.57
9 | CCCCCn1nnnc1-c1nn(-c2ccc(Cl)cc2Cl)c(-c2ccc(Cl)cc2)c1C [Example 573, 5-(5-(4-Chlorophenyl)-1-(2,4-dichlorophenyl)-4-methyl-1H-pyrazol-3-yl)-1-pentyl-1H-tetrazole] | 6.74
10 | Cc1c(-c2nnc(C3(Cc4ccccc4)CC3)o2)nn(-c2ccc(Cl)cc2Cl)c1-c1ccc(Cl)cc1 [Example 270, 2-(1-benzylcyclopropyl)-5-(5-(4-chlorophenyl)-1-(2,4-dichlorophenyl)-4-methyl-1H-pyrazol-3-yl)-1,3,4-oxadiazole] | 7.82
11 | CC(F)c1c(-c2nnc(C3(c4ccc(Cl)cc4)CC3)o2)nn(-c2ccc(Cl)cc2Cl)c1-c1ccc(Cl)cc1 (stereo not drawn) [Example 212, 2-(5-(4-chlorophenyl)-1-(2,4-dichlorophenyl)-4-(1-fluoroethyl)-1H-pyrazol-3-yl)-5-(1-(4-chlorophenyl)cyclopropyl)-1,3,4-oxadiazole] | 8.30
12 | Clc1ccc(-c2c(Cn3cncn3)c(-c3nnc(C4(c5ccccc5)CC4)s3)nn2-c2ccc(Cl)cc2Cl)cc1 [Example 507, 2-(4-((1H-1,2,4-triazol-1-yl)methyl)-5-(4-chlorophenyl)-1-(2,4-dichlorophenyl)-1H-pyrazol-3-yl)-5-(1-phenylcyclopropyl)-1,3,4-thiadiazole] | 8.75
13 | Cc1c(-c2n[nH]c(C3CCCCCC3)n2)nn(-c2ccc(Cl)cc2Cl)c1-c1ccc(Cl)cc1 [Example 615, 3-(5-(4-chlorophenyl)-1-(2,4-dichlorophenyl)-4-methyl-1H-pyrazol-3-yl)-5-cycloheptyl-1H-1,2,4-triazole] | 6.20

Now from value to compound:

Row | pIC50 | Compound
14 | 7.61 | CC(C)(C)c1nnc(-c2nn(-c3ccc(Cl)cc3Cl)c(-c3ccc(Cl)cc3)c2COc2ccccn2)o1 [Example 234, 2-tert-butyl-5-(5-(4-chlorophenyl)-1-(2,4-dichlorophenyl)-4-((pyridin-2-yloxy)methyl)-1H-pyrazol-3-yl)-1,3,4-oxadiazole]
15 | 6.08 | CCC(C)c1nc(-c2nn(-c3ccc(Cl)cc3Cl)c(-c3ccc(Cl)cc3)c2C)n[nH]1 (stereo not drawn) [Example 622, 5-sec-butyl-3-(5-(4-chlorophenyl)-1-(2,4-dichlorophenyl)-4-methyl-1H-pyrazol-3-yl)-1H-1,2,4-triazole]
16 | 7.60 | Cc1c(-c2nnc(C(C)(C)C)s2)nn(-c2ccc(Cl)cc2Cl)c1-c1ccc(Cl)cc1 [Example 372, 2-tert-Butyl-5-(5-(4-chlorophenyl)-1-(2,4-dichlorophenyl)-4-methyl-1H-pyrazol-3-yl)-1,3,4-thiadiazole]
17 | 6.56 | CCC(C)c1nnc(-c2nn(-c3ccc(Cl)cc3Cl)c(-c3cccc(Cl)c3)c2C)s1 (stereo not drawn) [Example 435, 2-sec-butyl-5-(5-(3-chlorophenyl)-1-(2,4-dichlorophenyl)-4-methyl-1H-pyrazol-3-yl)-1,3,4-thiadiazole]
18 | 7.70 | Cc1ccc(C2(c3nnc(-c4nn(-c5ccc(Cl)cc5Cl)c(-c5ccc(Cl)cc5)c4C)s3)CC2)cc1 [Example 460, 2-(5-(4-chlorophenyl)-1-(2,4-dichlorophenyl)-4-methyl-1H-pyrazol-3-yl)-5-(1-p-tolylcyclopropyl)-1,3,4-thiadiazole]
19 | 7.04 | Clc1ccc(-c2c(Br)c(-c3nnc(C4CCCCC4)s3)nn2-c2ccc(Cl)cc2Cl)cc1 [Example 544, 2-(4-bromo-5-(4-chlorophenyl)-1-(2,4-dichlorophenyl)-1H-pyrazol-3-yl)-5-cyclohexyl-1,3,4-thiadiazole]
20 | 8.23 | CCc1c(-c2nnc(C3(Cc4ccccc4)CC3)s2)nn(-c2ccc(Cl)cc2Cl)c1-c1ccc(Br)cc1 [Example 468, 2-(1-benzylcyclopropyl)-5-(5-(4-bromorophenyl)-1-(2,4-dichlorophenyl)-4-ethyl-1H-pyrazol-3-yl)-1,3,4-thiadiazole]
21 | 7.20 | Cc1c(-c2nnc(-c3cccs3)s2)nn(-c2ccc(Cl)cc2Cl)c1-c1ccc(Cl)cc1 [Example 351, 2-(5-(4-chlorophenyl)-1-(2,4-dichlorophenyl)-4-methyl-1H-pyrazol-3-yl)-5-(thiophen-2-yl)-1,3,4-thiadiazole]
22 | 8.10 | CCc1c(-c2nnc(C(C)CC)s2)nn(-c2ccc(Cl)cc2Cl)c1-c1ccc(Cl)cc1 (stereo not drawn) [Example 398, 2-sec-butyl-5-(5-(4-chlorophenyl)-1-(2,4-dichlorophenyl)-4-ethyl-1H-pyrazol-3-yl)-1,3,4-thiadiazole]
23 | 8.22 | CCc1c(-c2nnc(C3(c4ccccc4)CC3)o2)nn(-c2ccc(Cl)cc2Cl)c1-c1ccc(Cl)cc1 [Example 150, 2-(5-(4-chlorophenyl)-1-(2,4-dichlorophenyl)-4-ethyl-1H-pyrazol-3-yl)-5-(1-phenylcyclopropyl)-1,3,4-oxadiazole]
24 | 8.05 | CC(=O)OCc1c(-c2nnc(C(C)(C)C)s2)nn(-c2ccc(Cl)cc2Cl)c1-c1ccc(Br)cc1 [Example 520, (5-(4-bromophenyl)-3-(5-tert-butyl-1,3,4-thiadiazol-2-yl)-1-(2,4-dichlorophenyl)-1H-pyrazol-4-yl)methyl acetate]
